Where two headings read alike, the source gives them in different places.
How the values were obtained:
HL60 cells (myeloid) = experiment: cells; format: cell-based, human; conditions: Homo sapiens, HL-60, 2 h
8392 cells (B-cell) = experiment: cells; format: cell-based; conditions: 2 h
242, melanoma = experiment: inhibition of thymidine incorporation after two hour exposure, 242; format: cell-based; conditions: 2 h; Table 1; 242, two hour exposure
Procedure: To assess cytotoxic effects, various concentrations of illudins were added to cultures of cells for 48 hours, then cell growth/viability was determined by trypan blue exclusion. As an alternative to 48 hour continuous exposure studies, cells were plated in liquid culture in 96 well plates, exposed to various concentrations of illudins for 2 hours, pulsed with [^3 H]-thymidine for one to two hours and harvested onto glass filters. The filter papers were added to vials containing scintillation fluid and residual radioactivity determined in a beta (scintillation) counter.
two hour exposure to the toxins (N - 3).

[1] = system: MDA-231 3-1 (gp170+) cells; experiment: sensitivity of mdr lines, MDA-231 3-1; format: cell-based; conditions: Homo sapiens, MDA-MB-231
HL-60 parent cells = experiment: sensitivity of mdr lines, HL-60 parent; format: cell-based; conditions: Homo sapiens
HL-60 cells = experiment: cells; format: cell-based, human
[2] = kinetics of the reaction with dilute HCl; format: physicochemical; conditions: dehydroilludin M
Description: Consistent with the above hypothesis are the results of the kinetics of the reaction of illudin M and dehydroilludin M with dilute HCl. […] In the reaction with dehydroilludin M, no intermediate could be detected by NMR spectroscopy. Presumably it formed too slowly and is too short-lived to be detected.

[3] = system: Molt-4 (human T-cell leukemia) xenograft; experiment: Molt-4 xenograft in athymic Balb/c nu/nu mice; format: in vivo; conditions: 30 μg/kg, nude mice; FIG. 5
tolerability in mice = conditions: for MTD at 672 h: mouse, in vivo

## CC1=C2C(=O)C(C)(C)C=C2C(=O)[C@](C)(O)C12CC2 [Dehydroilludin M]
HL60 cells (myeloid)
  IC50: 246 ± 19 nM
HL60 cells (myeloid); read-out: Two hour IC50
  IC50: 377 ± 81 nM
8392 cells (B-cell)
  IC50: > 38000 nM
8392 cells (B-cell); read-out: Two hour IC50
  IC50: 61300 nM
242, melanoma
  IC50: > 38000 nM
[1]
  IC50: 58 ± 11 nM
HL-60 parent cells
  IC50: 163 ± 11 nM
HL-60 cells
  toxicity to HL-60 cells: less toxic
[2]
  half-life: 46.1 h
  k, first-order reaction: 2×10^-4 min^1
[3]
  complete regression of tumors: three of five tumors underwent complete regression
Tolerability in mice; 60,000 μg/kg IP twice a week
  toxicity to mice: nontoxic
Tolerability in mice; ip
  MTD at 672 h: 60 mg/kg
Tolerability in mice; iv
  MTD at 672 h: 1 mg/kg
